Data published in patent US12491207B2, “Article of manufacture comprising local anesthetic, buffer, and glycosaminoglycan in syringe with improved stability” (Vaneltix Pharma, Inc., priority 2017, dated 2025).
Counter-ions that a name gives are not always drawn.

Assay: Loss of lidocaine HCl on sterilization and storage in glass or plastic containers
Type: physicochemical
Method: This composition was packaged in 20-mL cyclic olefin polymer (COP) and polypropylene (PP) syringes; the polypropylene was not non-nucleated. Storage conditions were, as indicated below, either 25° C./60% relative humidity (RH) or 40° C./75% RH.
Testing points were as follows: at the initiation of the stability study, after 1 month, 2 months, 3 months, 6 months, and 12 months.
Additionally, the syringe parts (the plunger and the syringe body) were analyzed for leachables.

**Q.** For `CCN(CC)CC(=O)Nc1c(C)cccc1C` [lidocaine hydrochloride], which “loss of lidocaine hydrochloride after sterilization (FIG. 9)” value (“loss of lidocaine hydrochloride” for short) (glass vials, 80 mM phosphate buffer) is on record?
**A.** The value was “small loss”.

**Q.** What about the “loss of lidocaine hydrochloride” value (glass vials, different phosphate buffer molarities except 80 mM) of the same compound?
**A.** The value was “no loss”.

**Q.** And the “loss of lidocaine hydrochloride” value (plastic syringes, increasing with phosphate buffer molarity)?
**A.** Its value is “significant loss”.
